Measurements as given in patent publication US12195490B2, “STRAD-binding agents and uses thereof” (The Regents of the University of California, priority 2020, dated 2025).
Where a name gives a salt, the structure may show the parent alone.

system: ACHN cell line; experiment: drug screen of the SelleckChem kinase inhibitor library with and without 5 uM SU-329, Cell-Titer Glo after 5 days; format: cell-based; conditions: not given

| Molecule | log2fc |
| --- | --- |
| CHIR-98014 | 3.928 |
| N#CC(=C(/N)Sc1ccccc1N)/C(C#N)=C(\N)Sc1ccccc1N [U0126-EtOH, U0126, reference compound] | −0.3988 |

same assay, conditions: kinase inhibitor at 200 nM with and without 5 uM SU329; ACHN cell line; 5 days; Cell-Titer Glo

| Molecule | log2fc |
| --- | --- |
| CC(C)n1nc(-c2ccc3oc(N)nc3c2)c2c(N)ncnc21 [INK 128 (MLN0128)] | −0.2018 |
| O=C(Nc1cccc(Nc2ncc(Br)c(NCCc3cnc[nH]3)n2)c1)N1CCCC1 [BX-912] | −0.4536 |
| CO[C@H]1C[C@@H]2CC[C@@H](C)[C@@](O)(O2)C(=O)C(=O)N2CCCC[C@H]2C(=O)O[C@H]([C@H](C)C[C@@H]2CC[C@@H](OP(C)(C)=O)[C@H](OC)C2)CC(=O)[C@H](C)/C=C(\C)[C@@H](O)[C@@H](OC)C(=O)[C@H](C)C[C@H](C)/C=C/C=C/C=C/1C [Ridaforolimus (Deforolimus, MK-8669)] | −1.384 |
| COc1ncc(-c2ccc3nccc(-c4ccnnc4)c3c2)cc1NS(=O)(=O)c1ccc(F)cc1F [Omipalisib (GSK2126458, GSK458)] | 0.5342 |
| OCCn1cc(-c2ccc3c(c2)CC/C3=N\O)c(-c2ccncc2)n1 [GDC-0879] | 0.3592 |
| Nc1nc(N)c2nc(-c3cccc(O)c3)c(-c3cccc(O)c3)nc2n1 [TG100-115] | 0.2334 |
| NC(=O)c1ccc(N(C(N)=O)c2c(F)cccc2F)nc1-c1ccc(F)cc1F [VX-702] | −0.1168 |
| Cc1cc2c(F)c(Oc3ncnn4cc(OC[C@@H](C)O)c(C)c34)ccc2[nH]1 [Brivanib (BMS-540215)] | 0.1194 |
| COc1ccc(-c2nc(N3CCOCC3)c3sc(CN(C)c4ncc(C(=O)NO)cn4)cc3n2)cn1 [CUDC-907] | 0.5895 |
| C[C@@H]1CCN(C(=O)CC#N)C[C@@H]1N(C)c1ncnc2[nH]ccc12.O=C(O)CC(O)(CC(=O)O)C(=O)O [Tofacitinib (CP-690550) Citrate] | 0.3512 |
| Cc1cc(Nc2nc(N[C@@H](C)c3ccc(F)cc3)c(C#N)cc2F)n[nH]1 [AZ 960] | 0.979 |
| COc1cc(Nc2ncc3c(n2)-c2ccc(Cl)cc2C(c2c(F)cccc2OC)=NC3)ccc1C(=O)O [Alisertib (MLN8237)] | 0.7052 |
| COc1cccc2cc(-c3nc([C@H]4CC[C@H](C(=O)O)CC4)n4ncnc(N)c34)[nH]c12 [OSI-027] | −1.494 |
| CCn1c(=O)c(-c2ccc(-c3cncs3)cc2Cl)cc2cnc(Nc3ccc(N4CCN(C)CC4)cc3)nc21 [FRAX597] | −0.0718 |
| Cn1cc(-c2ccc3nnc(C(F)(F)c4ccc5ncccc5c4)n3n2)cn1 [JNJ-38877605] | 0.02907 |
| O=C1Nc2ccc(I)cc2/C1=C/c1cc(Br)c(O)c(Br)c1 [GW5074] | 0.4071 |
| C=CC(=O)Nc1cccc(Nc2nc(Nc3ccc(OCCOC)cc3)ncc2F)c1 [CC-292 (AVL-292)] | −0.2142 |
| O=c1c(O)c(-c2ccc(O)c(O)c2)oc2cc(O)cc(O)c12 [Quercetin] | −0.449 |
| [H]/N=C(/N)N/C(=N/[H])NCCc1ccccc1 [Phenformin HCl] | 0.5945 |
| CNC(=O)c1ccccc1Sc1ccc2c(/C=C/c3ccccn3)n[nH]c2c1 [Axitinib] | 0.00155 |
| CC(C)CC(=O)Nc1n[nH]c2c1CN(C(=O)C1CCN(C)CC1)C2(C)C [PHA-793887] | −0.1187 |
| Cc1nc(Nc2cnn(C3CCNCC3)c2)nc2c1N(C)C(=O)c1cc3ccccc3cc1N2C [HTH-01-015] | 0.3141 |
| O=C(NCCCNc1nc(Nc2cccc(NC(=O)N3CCCC3)c2)ncc1I)c1cccs1 [BX-795] | −0.3476 |
| COc1cc(OC)c(/C=C/S(=O)(=O)Cc2ccc(OC)c(NCC(=O)O)c2)c(OC)c1 [Rigosertib (ON-01910)] | 0.6643 |

| Molecule | log2fc |
| --- | --- |
| Cc1cn(-c2cc(NC(=O)c3ccc(C)c(Nc4nccc(-c5cccnc5)n4)c3)cc(C(F)(F)F)c2)cn1 [Nilotinib (AMN-107)] | 0.331 |
| O=C(c1ccc(/C=C/c2n[nH]c3ccccc23)cc1)N1CCNCC1 [KW-2449] | −0.0564 |
| Cn1cc(/C=C2\C(=O)Nc3cccnc32)c2ccccc21 [GW441756] | −0.09333 |
| COc1cc(F)c(F)c(Nc2ccc(I)cc2F)c1NS(=O)(=O)C1(C[C@H](O)CO)CC1 [Refametinib (RDEA119, Bay 86-9766)] | 0.4867 |
| CN1CCN(c2cccc(Nc3nc4c(-c5ccc(S(C)(=O)=O)cc5)cccn4n3)c2)CC1 [CEP-33779] | −0.6078 |
| COc1cc2c(Oc3ccc4[nH]c(C)cc4c3F)ncnc2cc1OCCCN1CCCC1 [Cediranib (AZD2171)] | 0.01224 |
| CNC(=O)c1c(F)cccc1Nc1nc(Nc2cc3c(cc2OC)CCN3C(=O)CN(C)C)nc2[nH]ccc12 [GSK1838705A] | −0.03081 |
| CN(C)CCCn1cc(C2=C(c3c[nH]c4ccccc34)C(=O)NC2=O)c2ccccc21 [Bisindolylmaleimide I (GF109203X)] | −0.2332 |
| NC1(Cc2ccc(Cl)cc2)CCN(c2ncnc3[nH]ccc23)CC1 [CCT128930] | −0.2364 |
| Nc1ccc(C(=O)Nc2cccc(-c3nc(N4CCOCC4)c4oc5ncccc5c4n3)c2)cn1 [YM201636] | −0.5268 |
| CN1CCN(S(=O)(=O)c2ccc(-c3cnc(N)c(C(=O)Nc4cccnc4)n3)cc2)CC1 [AZD2858] | 0.1991 |
| Cc1ccc(F)c(NC(=O)Nc2ccc(-c3cccc4[nH]nc(N)c34)cc2)c1 [Linifanib (ABT-869)] | −0.2483 |
| C[C@H](Nc1ncnc2nc[nH]c12)c1cc2cccc(Cl)c2c(=O)n1-c1ccccc1 [Duvelisib (IPI-145, INK1197)] | −0.2128 |
| COC(=O)c1ccc2c(c1)NC(=O)/C2=C(\Nc1ccc(N(C)C(=O)CN2CCN(C)CC2)cc1)c1ccccc1 [Nintedanib (BIBF 1120)] | 0.7859 |
| C[C@H]1[C@H](C)CC[C@]2(C(=O)O)CC[C@]3(C)C(=CC[C@@H]4[C@@]5(C)C[C@@H](O)[C@H](O)[C@@](C)(CO)[C@@H]5CC[C@]43C)[C@H]12 [Asiatic Acid] | 0.1505 |
| Cc1ccc(-c2nn(C(C)(C)C)c3ncnc(N)c23)cc1 [PP1] | 0.2956 |
| O=C1NC(=O)C(=Cc2ccc(-c3ccc(F)cc3)o2)S1 (stereo in doubt) [CAY10505] | 0.3828 |
| C[C@@H](N)[C@H]1CC[C@H](C(=O)Nc2ccncc2)CC1.Cl.Cl [Y-27632 2HCl] | −0.01003 |
| CN1CCN(c2ccc3nc(-c4c(N)c5c(F)cccc5[nH]c4=O)[nH]c3c2)CC1 [Dovitinib (TKI-258, CHIR-258)] | 0.4746 |
| COCCOc1ccc2c(c1)ncn2-c1ccc2cccc(N3CCC(N)CC3)c2n1 [CP-673451] | 0.4234 |
| CCN(CC)CCNC(=O)c1c(C)[nH]c(/C=C2\C(=O)Nc3ccc(F)cc32)c1C [Sunitinib Malate, sunitinib, reference compound] | −0.1249 |
| C[C@H](NC(=O)/C(C#N)=C/c1cccc(Br)n1)c1ccccc1 [WP1066] | −0.4551 |
| C[C@]1(O)C[C@@H](c2nc(-c3ccc4ccc(-c5ccccc5)nc4c3)c3c(N)nccn32)C1 [Linsitinib (OSI-906)] | 0.08978 |
| CNC(=O)c1ccc(C)c(-n2c(C)cc(OCc3ccc(F)cc3F)c(Br)c2=O)c1 [PH-797804] | −0.5678 |

| Molecule | log2fc |
| --- | --- |
| O=C(NOCC1CC1)c1ccc(F)c(F)c1Nc1ccc(I)cc1Cl [PD184352 (CI-1040), PD184352, reference compound] | 0.3257 |
| COC(=O)Nc1ccc(-c2nc(N3CCOCC3)c3cnn(C4CCN(C(=O)OC)CC4)c3n2)cc1 [WYE-354] | −1.143 |
| CNC(=O)c1cc(Oc2ccc(NC(=O)Nc3cc(C(C)(C)C)nn3-c3ccc4ncccc4c3)c(F)c2)ccn1 [Rebastinib (DCC-2036)] | 0.007715 |
| Cn1cnc2c(F)c(Nc3ccc(Br)cc3Cl)c(C(=O)NOCCO)cc21 [Selumetinib (AZD6244), selumetinib, reference compound] | 0.357 |
| COCCNCc1ccc(-c2cc3nccc(Oc4ccc(NC(=S)NC(=O)Cc5ccc(F)cc5)cc4F)c3s2)nc1 [MGCD-265] | 0.4311 |
| C[C@@H](Oc1cc(-c2cnn(C3CCNCC3)c2)cnc1N)c1c(Cl)ccc(F)c1Cl [Crizotinib (PF-02341066)] | 0.196 |
| O=C(c1cccc(Cl)c1F)N1CCN(Cc2cccc(Nc3nccs3)n2)CC1 [MK-8745] | −0.3779 |
| Oc1c2ccccc2c2c3c(cccc13)N=N2 [SP600125, reference compound] | 0.06823 |
| COc1cc(C(=O)NC2CCN(C)CC2)ccc1Nc1ncc2c(n1)N(C1CCCC1)CC(F)(F)C(=O)N2C [Ro3280] | 0.4269 |
| COc1ccc(-c2cc3c(C)nc(N)nc3n([C@H]3CC[C@H](OCCO)CC3)c2=O)cn1 [PF-04691502] | −0.5101 |
| SNS-314 Mesylate | 0.4469 |
| Cc1ccc(NC(=O)c2ccc(CN3CCN(C)CC3)cc2)cc1Nc1nccc(-c2cccnc2)n1 [Imatinib Mesylate (STI571), imatinib, reference compound] | 0.1536 |
| Nc1nc(N)c(N=O)c(OCC2CCCCC2)n1 [NU6027] | −0.2463 |
| Nc1nc(Nc2ccc(S(N)(=O)=O)cc2)nn1C(=O)c1c(F)cccc1F [JNJ-7706621] | 0.3857 |
| Cc1ccc(S(=O)(=O)/C=C/C#N)cc1 [BAY 11-7082, reference compound] | −0.1258 |
| Cn1cnc2c(F)c(Nc3ccc(Br)cc3F)c(C(=O)NOCCO)cc21 [Binimetinib (MEK162, ARRY-162, ARRY-438)] | 0.5434 |
| C=CC(=O)Nc1cccc(Oc2nc(Nc3ccc(N4CCN(C)CC4)cc3OC)ncc2Cl)c1 [WZ4002, reference compound] | −0.07545 |
| Cc1cc(O)c2c(c1)C(=O)c1cccc(O)c1C2=O [Chrysophanic Acid] | −0.1902 |
| CC(C)NC[C@@H](C(=O)N1CCN(c2ncnc3c2[C@H](C)C[C@H]3O)CC1)c1ccc(Cl)cc1 [Ipatasertib (GDC-0068)] | −0.5082 |
| Nc1cc(C(F)(F)F)c(-c2cc(N3CCOCC3)nc(N3CCOCC3)n2)cn1 [Buparlisib (BKM120, NVP-BKM120)] | −1.183 |
| O=C1NC(=O)/C(=C/c2ccc3c(c2)OC(F)(F)O3)S1 [AS-604850] | 0.4876 |
| Cc1ccc(C(=O)Nc2cccc(C(F)(F)F)c2)cc1Nc1nc(-c2cccnc2)nc2c1cnn2C [NVP-BHG712] | 0.02396 |
